According to publication PMC5761851, “Application of a phenotypic drug discovery strategy to identify biological and chemical starting points for inhibition of TSLP production in lung epithelial cells” (PLoS ONE, 2018):

Test system: TNF-alpha
Test: BioPrint panel: TNF-alpha (h) (agonist)
Type: binding, human
Settings: 1 micromolar
Text: Supplement pone.0189247.s004.xlsx, sheet "Bioprint Selectivity Panel" | column: %

## Cn1cc(-c2cccc(-c3nc(C(=O)NC4C5CC6CC4CC(O)(C6)C5)c(N)nc3N)c2)cn1 (stereo not shown) [compound 4]
  percentage of inhibition of activity: -2.1%
